From patent US9593381B2, “Method and kit for detecting carbapenemase genes” (Amplidiag OY, priority 2009, dated 2017)

Columns and labels:
NDM-1 [1] = molecular target: T1, NDM-1 (Klebsiella pneumoniae, UniProt C7C422); conditions: metallo-β-lactamase NDM-1; cited from earlier work
NDM-1 [2] = molecular target: T1, NDM-1; conditions: cited from earlier work
[3] = system: Enterobacter cloacae strain harbouring IMI-2 gene; test: Antibiotic susceptibility (MIC) of the IMI-2 positive clinical strain; format: cell-based; parameters: MIC: unit not given beside the values; conditions: for resistance of the strain: IMI-2 positive Enterobacter cloacae strain

T1 sequence (C7C422 29-270 limits assumed): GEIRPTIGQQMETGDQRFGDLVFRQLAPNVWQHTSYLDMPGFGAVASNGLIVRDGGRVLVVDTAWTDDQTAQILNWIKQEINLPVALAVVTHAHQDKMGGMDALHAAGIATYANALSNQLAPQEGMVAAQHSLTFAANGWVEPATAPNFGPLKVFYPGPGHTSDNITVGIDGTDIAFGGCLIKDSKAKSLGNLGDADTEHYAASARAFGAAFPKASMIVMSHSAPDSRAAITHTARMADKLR

Compound: C[C@H]1[C@H](NC(=O)/C(=N\OC(C)(C)C(=O)O)c2csc(N)n2)C(=O)N1S(=O)(=O)O [aztreonam]
- hydrolysis by NDM-1 (NDM-1 [1]): can hydrolyze all β-lactams except aztreonam

Compound: CO/N=C(\C(=O)N[C@@H]1C(=O)N2C(C(=O)O)=C(COC(C)=O)CS[C@H]12)c1csc(N)n1 [cefotaxime]
- binding to NDM-1 compared to VIM-2 (NDM-1 [2]): tighter binding

Compound: CO/N=C(\C(=O)N[C@@H]1C(=O)N2C(C(=O)O)=C(COC(N)=O)CS[C@H]12)c1ccco1 [cefuroxime]
- binding to NDM-1 compared to VIM-2 (NDM-1 [2]): tighter binding

Compound: CC(=O)OCC1=C(C(=O)O)N2C(=O)[C@@H](NC(=O)Cc3cccs3)[C@H]2SC1 [cephalothin]
- binding to NDM-1 compared to VIM-2 (NDM-1 [2]): tighter binding

Compound: C[C@@H](O)[C@H]1C(=O)N2C(C(=O)O)=C(S[C@@H]3CN[C@H](C(=O)Nc4cccc(C(=O)O)c4)C3)[C@H](C)[C@H]12 [ertapenem]
- resistance of the strain [3]: highly resistant
- MIC ([3]; IMI-2 positive Enterobacter cloacae strain isolated from a patient in intensive care unit): > 256

Compound: C[C@@H](O)[C@H]1C(=O)N2C(C(=O)O)=C(S[C@@H]3CN[C@H](C(=O)N(C)C)C3)[C@H](C)[C@H]12 [meropenem]
- resistance of the strain [3]: highly resistant

Compound: trimetoprim/sulfa
- resistance of the strain [3]: not, however, resistant
